The structures appear in SMILES notation.

Experimental findings from patent US11208400B2, “Substituted 6-(1H-pyrazol-1-yl)pyrimidin-4-amine derivatives and uses thereof” (Bayer Aktiengesellschaft, priority 2016, dated 2021) are described below.

For the test, the target named is T1, human Npt2a (Homo sapiens, UniProt Q06495).
T1 construct: expressed in transfected cells
T1 sequence (Q06495 1-639): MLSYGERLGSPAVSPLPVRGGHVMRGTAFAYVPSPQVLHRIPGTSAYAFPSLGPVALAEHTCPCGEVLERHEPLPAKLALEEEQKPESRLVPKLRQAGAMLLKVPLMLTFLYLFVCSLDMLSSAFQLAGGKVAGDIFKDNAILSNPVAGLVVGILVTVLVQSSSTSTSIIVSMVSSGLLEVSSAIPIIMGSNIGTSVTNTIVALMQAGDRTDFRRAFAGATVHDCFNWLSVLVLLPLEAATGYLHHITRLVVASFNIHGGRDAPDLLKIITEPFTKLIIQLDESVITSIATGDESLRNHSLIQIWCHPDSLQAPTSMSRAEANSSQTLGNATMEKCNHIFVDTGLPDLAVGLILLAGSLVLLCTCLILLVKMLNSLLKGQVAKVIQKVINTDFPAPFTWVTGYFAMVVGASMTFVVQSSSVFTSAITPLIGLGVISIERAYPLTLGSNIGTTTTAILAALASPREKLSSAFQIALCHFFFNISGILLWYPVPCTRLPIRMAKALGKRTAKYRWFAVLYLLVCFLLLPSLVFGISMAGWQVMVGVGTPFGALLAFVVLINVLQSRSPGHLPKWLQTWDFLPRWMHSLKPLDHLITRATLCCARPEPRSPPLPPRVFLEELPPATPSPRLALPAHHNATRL
The experiment in a line: Npt2a activity cell based assay, membrane potential dye, CHO T-REx hNpt2a cells. Particulars: doxycycline-induced, depolarization by sodium phosphate influx, average or median values if tested more than once. The procedure, abridged:
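Cells were doxycycline-induced CHO T-REx hNpt2a, dye-loaded and pretreated 5 min at RT with 1 nM–50 μM compound in Na-free pH 7.4 buffer. IC50 was fit to the post/pre-trigger fluorescence ratio.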
As for `Cc1nn(-c2cc(Nc3c(C)c(-c4ccc(C(F)F)cc4)nn3CC3CC3)ncn2)c(C)c1C(O)C1CC1` (single isomer, unassigned) [Example 496, Cyclopropyl {1-[6-({1-(cyclopropylmethyl)-3-[4-(difluoromethyl)phenyl]-4-methyl-1H-pyrazol-5-yl}amino)pyrimidin-4-yl]-3,5-dimethyl-1H-pyrazol-4-yl}methanol], half-maximal inhibition (IC50) required 230 nM.
Consider `Cc1c(-c2ccc(F)cc2)nn(CC2CC2)c1Nc1cc(-n2nc3c(c2C)C(C)(O)CC3)ncn1` (single isomer, unassigned) [Example 515, 2-(6-{[1-(cyclopropylmethyl)-3-(4-fluorophenyl)-4-methyl-1H-pyrazol-5-yl]amino}pyrimidin-4-yl)-3,4-dimethyl-2,4,5,6-tetrahydrocyclopenta[c]pyrazol-4-ol], for which inhibition was half-maximal at 110 nM (IC50). Against the preceding compound, the IC50 is about 2.1-fold lower.
As to `Cc1c(-c2ccc(F)cc2)nn(CC2CC2)c1Nc1cc(-n2nc3c(c2C)C(C)(O)CC3)ncn1` (single isomer, unassigned) [Example 516, 2-(6-{[1-(cyclopropylmethyl)-3-(4-fluorophenyl)-4-methyl-1H-pyrazol-5-yl]amino}pyrimidin-4-yl)-3,4-dimethyl-2,4,5,6-tetrahydrocyclopenta[c]pyrazol-4-ol], the IC50 (commonly the concentration needed to halve the response being measured) turned out to be 31 nM. Against the preceding compound, the IC50 is about 3.5-fold lower.
Take `CCc1c(Nc2cc(-n3nc(C)cc3C)ncn2)nn(C)c1-c1ccc(F)cc1` [Example 1, 6-(3,5-dimethyl-1H-pyrazol-1-yl)-N-[4-ethyl-5-(4-fluorophenyl)-1-methyl-1H-pyrazol-3-yl]pyrimidin-4-amine]: inhibition was half-maximal at 4.48 nM (IC50).
`CCc1c(-c2ccc(F)cc2)n[nH]c1Nc1cc(-n2nc(C)cc2C(F)F)ncn1` [Example 2, 6-[5-(difluoromethyl)-3-methyl-1H-pyrazol-1-yl]-N-[4-ethyl-3-(4-fluorophenyl)-1H-pyrazol-5-yl]pyrimidin-4-amine]: the midpoint of inhibition, the IC50, lay at 12 nM.
The compound `Cc1nn(-c2cc(Nc3[nH]nc(-c4ccc(F)cc4F)c3Cl)ncn2)c(C)c1Cl` [Example 3, N-[4-chloro-3-(2,4-difluorophenyl)-1H-pyrazol-5-yl]-6-(4-chloro-3,5-dimethyl-1H-pyrazol-1-yl)pyrimidin-4-amine] returned an IC50 of 13 nM.
In the case of `CCOC(=O)c1c(C)nn(-c2cc(Nc3n[nH]c(-c4ccc(F)cc4)c3CC)ncn2)c1C` [Example 4, ethyl 1-(6-{[4-ethyl-5-(4-fluorophenyl)-1H-pyrazol-3-yl]amino}pyrimidin-4-yl)-3,5-dimethyl-1H-pyrazole-4-carboxylate], half-maximal inhibition (IC50) required 28.3 nM.
Regarding `CCc1c(Nc2cc(-n3nc(C)c(Cl)c3C)ncn2)n[nH]c1-c1ccc(F)cc1` [Example 5, 6-(4-chloro-3,5-dimethyl-1H-pyrazol-1-yl)-N-[4-ethyl-5-(4-fluorophenyl)-1H-pyrazol-3-yl]pyrimidin-4-amine], inhibition was half-maximal at 27.5 nM (IC50).
In turn, `Cc1cc(C)n(-c2cc(Nc3n[nH]c(-c4ccc(F)cc4F)c3Cl)ncn2)n1` [Example 6, N-[4-chloro-5-(2,4-difluorophenyl)-1H-pyrazol-3-yl]-6-(3,5-dimethyl-1H-pyrazol-1-yl)pyrimidin-4-amine] had an IC50 of 49 nM.
As for `Cc1cc(C)n(-c2cc(Nc3n[nH]c(-c4ccc(F)cc4)c3C3CC3)ncn2)n1` [Example 7, N-[4-cyclopropyl-5-(4-fluorophenyl)-1H-pyrazol-3-yl]-6-(3,5-dimethyl-1H-pyrazol-1-yl)pyrimidin-4-amine], the IC50 stood at 36 nM.
`Cc1nn(-c2cc(Nc3[nH]nc(-c4ccc(F)cc4)c3C3CC3)ncn2)c(C)c1Cl` [Example 8, 6-(4-chloro-3,5-dimethyl-1H-pyrazol-1-yl)-N-[4-cyclopropyl-3-(4-fluorophenyl)-1H-pyrazol-5-yl]pyrimidin-4-amine] yielded an IC50 of 38 nM.
`CCc1c(Nc2cc(-n3nc(C)cc3C)ncn2)n[nH]c1-c1ccc(F)cc1F` [Example 9, N-[5-(2,4-difluorophenyl)-4-ethyl-1H-pyrazol-3-yl]-6-(3,5-dimethyl-1H-pyrazol-1-yl)pyrimidin-4-amine] came in with an IC50 of 40 nM. This IC50 and that of the compound before are within 1.5-fold of each other.
